SMILES strings stand for the structures.

These results are taken from US10927096B2, “Ester substituted ion channel blockers and methods for use” (Nocion Therapeutics, Inc., priority 2019, dated 2021).

For this experiment, the target named is T1, NaV1.7 (Homo sapiens, UniProt Q15858).
T1 construct: expressed in transfected cells; host or cells: HEK293, tetracycline-inducible
As to the kind of experiment: Whole cell patch clamp, internal block of NaV1.7 current. The experiment is classed as cell-based. The following applies: % inhibition at 1 μM test concentration, compound in internal solution, manual whole cell patch clamp. The method, then: NaV1.7 was expressed upon induction with tetracycline. Cells were cultured in DMEM containing 10% dialyzed Fetal Bovine Serum (VWR, Radnor, Pa.), 1% Glutamax (VWR, Radnor, Pa.), 1% Penicillin-Streptomycin (VWR, Radnor, Pa.), 100 mg/L Hygromycin (Thermo Fisher Scientific, Waltham, Mass. and 5 mg/L Blasticidin (Alfa Aesar, Haverhill, Mass.). Cells were grown and maintained at 37° C. in a humidified environment containing 10% C02 in air. Cells were detached from the culture flask for passage and harvested using 0.05% Trypsin-EDTA (Thermo Fisher Scientific, Waltham, Mass.). To induce NaV1.7, cells were induced with tetracycline (0.1-1 μg/mL, IBI Scientific, Peosta, Iowa) the day before recording and plated onto 24-well plates. Cells were washed with DPBS (VWR, Radnor, Pa.), trypsinized and then triturated five times in 10 mL of growth media to break apart cell aggregates. For one 24-well plate, 2 mL of cell suspension was mixed with 23 mL of fresh growth media and 0.1-1 μg/mL tetracycline added. 1 ml of mixed media with cells was then added to each well of a 24-well plate, with a 12 mm coverslip already placed in the bottom of the well. Cells were then incubated in 37° C. and 10% CO2 overnight.
The intracellular solution contained the following (in mM) CsCl 135, NaCl 10, EGTA 10, HEPES 10, MgCl2 2, adjusted to pH 7.2 with CsOH. The external solution was a normal Ringer solution containing (in mM) NaCl 155, HEPES 10, glucose 10, KCl 3.5, CaCl2 1.5, MgCl2 1 adjusted to pH 7.4 with NaOH. CsCl is from Alfa Aesar, Haverhill, Mass. All other chemicals are from Sigma-Aldrich, St. Louis, Mo. In order to test the degree of internal block by test compounds the compounds were dissolved in internal solution at the indicated test concentration. […] In order to test the degree of external block by test compounds the compounds were dissolved in external solution at the indicated test concentration.
18-24 hours after cells were induced with tetracycline, coverslips were placed into a chamber filled with Normal Ringer solution at room temperature and the chamber placed on a microscope. Pipettes were pulled from borosilicate glass on a P97 puller (Sutter Instrument, Novato, Calif.) and polished with a MF-830 Microforge (Narishige International USA, Inc, Amityville, N.Y.) to have a resistance of 1.5-2.5 MΩ when filled with CsCl internal solution at room temperature. Healthy cells (those that are round and translucent with no visible blemishes) were chosen for seal formation. A seal was formed between the pipette and the cell, and a brief pulse of suction was used to “break in” and establish the whole-cell configuration. The membrane potential was held at −100 mV before the voltage protocol began. Only cells with series resistance between 1.5-5 MΩ were retained for analysis. The voltage protocol was as follows: Cells were held at −100 mV for 12 ms followed by a hyperpolarizing step to −105 mV for 12 ms to monitor the leak. Cells were then stepped back to −100 mV for 40 ms. Cells were then depolarized to −20 mV for 10 ms and then returned to −100 mV for 26 ms (The FIGURE).
Once the recording was started, the voltage protocol was run at 30 second intervals for 5 minutes to get a stable baseline. This was followed by four 30-second periods of 5 Hz stimulation of the same voltage protocol separated by 1 minute of rest which was then followed by 0.33 Hz stimulation after the last train. Currents were recorded using PatchMaster software with Heka EPC10 (HEKA Electronics, Lambrecht, Germany). Only cells with inward current amplitudes at −20 mV between 400 pA and 4 nA were accepted. In addition, cells having leak currents greater than 10% of their current amplitudes were discarded.
The data was plotted using the Patchmaster software (HEKA Electronics, Lambrecht, Germany) and analyzed by plotting the minimum current during the voltage step to −20 mV (peak inward current) as a function of time. […]

T1 sequence (Q15858 whole entry): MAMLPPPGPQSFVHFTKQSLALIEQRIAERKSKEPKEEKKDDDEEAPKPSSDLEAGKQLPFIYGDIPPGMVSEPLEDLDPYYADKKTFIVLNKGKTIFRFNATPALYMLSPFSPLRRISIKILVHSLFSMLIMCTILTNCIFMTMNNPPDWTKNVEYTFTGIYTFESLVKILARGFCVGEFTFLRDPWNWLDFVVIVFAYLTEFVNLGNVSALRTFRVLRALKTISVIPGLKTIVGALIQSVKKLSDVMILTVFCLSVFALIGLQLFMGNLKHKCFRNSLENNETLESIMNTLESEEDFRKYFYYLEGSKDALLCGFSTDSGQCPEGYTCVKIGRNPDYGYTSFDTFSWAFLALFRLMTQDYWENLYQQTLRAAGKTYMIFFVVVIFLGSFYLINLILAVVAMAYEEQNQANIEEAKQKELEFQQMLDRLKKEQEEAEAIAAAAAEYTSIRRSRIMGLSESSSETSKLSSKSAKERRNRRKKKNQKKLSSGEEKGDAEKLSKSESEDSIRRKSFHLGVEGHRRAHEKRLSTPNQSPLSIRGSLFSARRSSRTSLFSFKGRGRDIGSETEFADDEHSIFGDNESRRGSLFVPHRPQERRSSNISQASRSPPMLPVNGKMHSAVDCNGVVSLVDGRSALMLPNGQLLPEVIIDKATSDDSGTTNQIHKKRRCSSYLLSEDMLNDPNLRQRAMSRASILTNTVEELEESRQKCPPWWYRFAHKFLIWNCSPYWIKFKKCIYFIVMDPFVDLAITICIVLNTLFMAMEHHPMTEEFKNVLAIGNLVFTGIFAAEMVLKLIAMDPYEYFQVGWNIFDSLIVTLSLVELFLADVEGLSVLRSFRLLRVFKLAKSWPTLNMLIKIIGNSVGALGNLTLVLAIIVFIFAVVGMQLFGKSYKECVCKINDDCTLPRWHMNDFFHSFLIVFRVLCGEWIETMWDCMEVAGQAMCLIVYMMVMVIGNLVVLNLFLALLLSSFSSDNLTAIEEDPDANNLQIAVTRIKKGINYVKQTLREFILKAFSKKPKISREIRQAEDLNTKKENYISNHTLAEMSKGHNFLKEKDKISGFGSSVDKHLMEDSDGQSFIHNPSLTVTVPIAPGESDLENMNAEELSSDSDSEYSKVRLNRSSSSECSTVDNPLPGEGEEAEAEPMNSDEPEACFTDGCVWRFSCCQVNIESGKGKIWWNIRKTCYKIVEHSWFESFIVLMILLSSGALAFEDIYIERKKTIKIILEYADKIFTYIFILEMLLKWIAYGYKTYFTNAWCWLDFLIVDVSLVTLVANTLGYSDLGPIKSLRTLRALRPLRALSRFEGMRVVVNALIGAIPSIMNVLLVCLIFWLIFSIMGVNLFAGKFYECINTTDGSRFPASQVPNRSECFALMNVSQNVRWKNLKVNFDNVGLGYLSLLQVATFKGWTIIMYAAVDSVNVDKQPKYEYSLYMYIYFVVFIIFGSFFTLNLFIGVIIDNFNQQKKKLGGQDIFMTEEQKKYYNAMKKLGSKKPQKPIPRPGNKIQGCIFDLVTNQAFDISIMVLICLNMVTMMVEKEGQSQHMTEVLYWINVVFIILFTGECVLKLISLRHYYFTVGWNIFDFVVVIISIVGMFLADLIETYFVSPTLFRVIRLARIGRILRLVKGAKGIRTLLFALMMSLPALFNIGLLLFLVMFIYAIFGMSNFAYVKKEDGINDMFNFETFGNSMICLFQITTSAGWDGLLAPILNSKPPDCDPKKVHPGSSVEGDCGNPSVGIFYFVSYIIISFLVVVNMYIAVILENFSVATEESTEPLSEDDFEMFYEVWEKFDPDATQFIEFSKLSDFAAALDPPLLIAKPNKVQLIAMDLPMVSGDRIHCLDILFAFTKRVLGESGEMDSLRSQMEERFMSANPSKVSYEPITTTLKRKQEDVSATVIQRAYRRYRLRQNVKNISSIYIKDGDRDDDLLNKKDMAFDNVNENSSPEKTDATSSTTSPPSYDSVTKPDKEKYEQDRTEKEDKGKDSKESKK

With `CCCNC(=O)C1CCC[N+](CC(=O)Nc2c(C)cccc2C(=O)OC)(Cc2ccccc2)C1` (mixture of isomers) [Compound 28], the “NaV1.7 Intracellular Inhibition” value was “++ (70-30%)”.
